From patent US11098072B2, “Alkenyl and beta-substituted phosphonates as antimicrobial agents” (The George Washington University, priority 2017, dated 2021)
Values joined by “and” are separate entries in the source; they are usually repeats but may differ in a detail not shown here. Equal values may be shown once. Read-outs that look alike come from different tables or passages of the source.

Columns and labels:
[1] = target: T1, P. falciparum DXR (Plasmodium falciparum, UniProt Q8IKG4); assay: Inhibition of P. falciparum DXR enzyme; type: biochemical
T1 sequence (Q8IKG4 73-488): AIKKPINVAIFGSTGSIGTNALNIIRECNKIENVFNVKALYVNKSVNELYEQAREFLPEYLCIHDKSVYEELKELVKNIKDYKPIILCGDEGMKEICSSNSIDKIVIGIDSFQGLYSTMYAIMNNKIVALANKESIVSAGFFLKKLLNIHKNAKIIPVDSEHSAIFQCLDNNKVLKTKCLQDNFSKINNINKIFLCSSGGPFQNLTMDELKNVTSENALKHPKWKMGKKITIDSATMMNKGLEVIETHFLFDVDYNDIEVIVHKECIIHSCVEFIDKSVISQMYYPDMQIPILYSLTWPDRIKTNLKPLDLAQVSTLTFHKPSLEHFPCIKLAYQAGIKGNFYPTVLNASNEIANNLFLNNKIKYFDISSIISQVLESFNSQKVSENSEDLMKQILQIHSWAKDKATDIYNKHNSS

[2] = system: P. falciparum; assay: Growth inhibition against P. falciparum; type: cell-based
[3] = system: HepG2 cells; assay: HepG2 cell inhibition (cytotoxicity) assay; type: cell-based; details: for IC50: Homo sapiens
Procedure: For cytotoxicity assays, HepG2 cells (ATCC HB-8065) were grown in DMEM supplemented with 4 mM L-glutamine (Gibco #11966-025) with either 4.5 g/L D-glucose or 1.8 g/L galactose as carbon source. Cells were trypsinized, resuspended in the respective medium (DMEM/glutamine/glucose or DMEM/glutamine/galactose) to 4×10^5 cells/mL and 50 μL/well transferred to flat-bottom white opaque tissue culture plates (Falcon #353296) containing 50 μL/well of the respective medium with test compound. Compound concentrations were two-fold dilutions ranging from 50 μM to 0.049 μM as well as the drug-free DMSO-only control. All concentrations were tested in duplicate for each carbon source. After 24 h incubation at 5% CO2, 37° C., 10 μL/well of Celltiter-Glo reagent (Promega #G9241) was added and luminescence recorded after 20 min incubation in the dark.

[4] = Metabolic stability in mouse liver microsomes; type: in vitro ADME; details: pH 7.4
Procedure: (§1) In this protocol, the metabolic stability of compounds at 1 μM was determined in mouse liver microsomes (MLM) and mouse plasma. For microsomal stability each test compound was incubated in an aqueous reaction mixture consisting of 0.25 […], 1.2 mM NADPH, 3.3 mM MgCl2, and 100 mM potassium phosphate buffer (pH 7.4). For plasma stability each test compound was incubated in mouse plasma (VWR). After incubation at 37° C. a 50 μL aliquot of the reaction was transferred to 200 μL ice cold acetonitrile containing internal standard (Enalapril, 100 ng/mL). The quenched reaction mixtures were centrifuged at 3200 rpm for 5 min, and 100 μL of the supernatant were transferred to 96-well plate and analyzed by LC-MS/MS using an Applied Biosystems-Sciex API 4000. Analyte/internal standard peak area ratios were used to evaluate stability. […] An Amour C18 column (2.1×30 mm, 5 μm; Analytical Sales and Services, Pompton Plains, N.J.) was used for chromatographic separation. Mobile phases were 0.1% formic acid, 1 mM triethylamine in water and acetonitrile with a flow rate of 0.35 mL/min. The starting phase was 0% acetonitrile increased to 100% acetonitrile over 3 minutes. Peak areas were integrated using Analyst Software (AB Sciex, Foster City, Calif.).

[5] = in vitro; type: in vitro ADME; details: mouse plasma, compound 1 μM, 37° C.; read-out: Plasma stability (t1/2)
Procedure: as §1

[6] = In vivo exposure study in mice; design: species or system Swiss Webster mice
Procedure: We designed a compound exposure study to determine plasma concentration of 12a under similar conditions to the efficacy study.
Animal care and all procedures were conducted at Charles River Laboratories (Wilmington, Mass.) and performed in accordance with the National Institutes of Health Guide for the Care and Use of Laboratory Animals and approved by the institutional animal care and use committee. […] The suspension was administered to unfasted female Swiss Weber mice (n=3) at 20 mg/kg i.p. Plasma samples (10 μL) were removed at 0.25, 0.5, 1, 2, 4, 6 and 8 h and stored at −80° C. Plasma samples were added to ice cold acetonitrile containing the internal standard, glafenine, as appropriate to bring samples into the standard curve range (50-10,000 ng/ml), then centrifuged for 5 minutes at 3200 rpm and the supernatant transferred to a 96-well sample plate for analysis by liquid chromatography-tandem mass spectrometry. The MRM transitions for glafenine and 12a were m/z: 370.9>296.9 and 180.075>119.9, respectively. A Synergi 4 μm Hydro-RP column (250×4.6 mm, 80 Å) was used for chromatographic separation. Mobile phases were 0.1% formic acid in water and acetonitrile with a flow rate of 1.2 mL/min. The starting phase was 0% acetonitrile for 3 minutes, increased to 60% acetonitrile over 6 minutes. Peak areas were integrated using Analyst Software (AB Sciex, Foster City, Calif.).

[7] = system: P. falciparum had1 mutant strain; type: cell-based; details: for sensitivity in had1+HAD1-GFP strain: mutant supplied with wild-type copy of HAD1; for resistance of had1 parasites compared with wild-type 3D7: shift of IC50 curve
[8] = system: P. berghei ANKA; assay: P. berghei-infected mouse model of malaria; type: in vivo; details: for luciferin signal intensity (parasitemia): read seven days after infection
Procedure: Groups of mice were infected with luciferase-based blood-stage P. berghei ANKA by intraperitoneal (ip) injection. […] Seven days after infection, intensity of the luciferin signal was measured, correlating to the parasitemia burden.

[9] = system: MEP pathway metabolites; assay: MEP pathway metabolite assay (LC-MS/MS); type: cell-based, P. falciparum; details: 3D7, 65 nM (5× IC50), 10 h
From the text: Thus, a mass spectrometry-based method was used to quantify the MEP metabolites from untreated P. falciparum versus parasites treated with this compound (FIG. 4). These metabolites include the DXR substrate (1-deoxy-D-xylulose 5-phosphate, DOXP), the DXR product (2-C-methylerythritol 4-phosphate, MEP), and the downstream metabolites (4-diphosphocytidyl-2-C-methylerythritol (CDP-ME) and 2-C-methyl-D-erythritol 2,4-cyclopyrophosphate (MEcPP)).
Cultures were lysed with 5% saponin, the parasite pellets washed with 1× phosphate-buffered saline (PBS), and the pellets stored at −80° C. […]
For LC separation, a Luna-NH2 column (3 um, 150×2 mm, Phenomenex) was used flowing at 0.4 mL/min. […] Metabolites were detected using MRM transitions that were previously optimized using standards. […] For quantification, an external standard curve was prepared using a series of standard samples containing different concentrations of metabolites and fixed concentration of the internal standard. […]

[10] = target: Mtb DXR (Mycobacterium tuberculosis, UniProt P9WNS1); assay: Inhibition of Mtb DXR enzyme; type: biochemical, M. tuberculosis; details: percent remaining enzyme activity at 100 μM compound
Procedure: Phosphonic acid salts and prodrugs were evaluated as inhibitors of DXR from Mtb and P. falciparum and the results are shown in Table 6. Initially, the percent remaining enzyme activity was studied using a treatment of each compound at a single concentration of 100 μM. […] In general, the compounds display greater inhibition of DXR from P. falciparum compared with activity against the Mtb homolog.

[11] = system: Mtb; assay: Mtb growth inhibition (MIC99) in 7H9 and GAST-Fe media; type: cell-based, M. tuberculosis; details: Mycobacterium tuberculosis
Procedure: Selected analogs were tested for the growth inhibition against P. falciparum and Mtb in both rich media (7H9) and minimal media (GAST-Fe) following reported procedures.

[12] = target: T1, P. falciparum DXR; details: background; read-out: P. falciparum DXR IC50; cited from earlier work
[13] = system: P. falciparum; details: earlier work / reference drug; read-out: P. falciparum growth IC50; cited from earlier work
[14] = mouse liver microsomes, compound 1 μM, 37° C., read-out: Metabolic stability MLM (t1/2)
[15] = Table 6, N-acyl analogs, read-out: Pf Dxr IC50
[16] = Plasmodium falciparum; Table 6, growth inhibition; read-out: P.f. IC50
[17] = minimal media (GAST-Fe), read-out: Mtb MIC99 Gast/Fe
[18] = rich media (7H9), read-out: Mtb MIC99 7H9

Mtb DXR, sequence (P9WNS1 whole entry): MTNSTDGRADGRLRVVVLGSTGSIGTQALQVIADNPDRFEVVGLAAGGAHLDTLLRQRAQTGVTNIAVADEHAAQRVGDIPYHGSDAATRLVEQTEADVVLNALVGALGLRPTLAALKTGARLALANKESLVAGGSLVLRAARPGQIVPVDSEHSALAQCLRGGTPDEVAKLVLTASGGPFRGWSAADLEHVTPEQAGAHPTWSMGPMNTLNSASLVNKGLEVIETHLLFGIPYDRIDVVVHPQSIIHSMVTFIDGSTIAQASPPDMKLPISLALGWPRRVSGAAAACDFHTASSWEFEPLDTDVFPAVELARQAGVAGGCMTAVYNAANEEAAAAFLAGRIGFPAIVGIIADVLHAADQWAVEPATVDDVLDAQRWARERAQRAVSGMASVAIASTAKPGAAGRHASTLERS

For `O=CN(O)C/C=C/P(=O)([O-])O.[Na+]` [Compound 12a, Sodium hydrogen [(1E)-3-(N-hydroxyformamido)prop-1-en-1-yl]phosphonate], the IC50 ([1]; read-out: P. falciparum DXR IC50) was 92 nM, the IC50 ([2]; Plasmodium falciparum, read-out: P. falciparum growth IC50) was 19 nM and the IC50 ([2]; Plasmodium falciparum, read-out: Pf IC50) was 19 nM. The “SI^Pf Selectivity Index for P. falciparum” value ([3]; HepG2 IC50/P.falciparum IC50) was 2632, the IC50 ([3]; HepG2, read-out: HepG2 IC50) was greater than 50 µM and the half-life at 1 μM [4, 14] was greater than 60 min. For the same molecule, the half-life at 1 μM [5] was greater than 120 min, the “plasma concentration at 8 h relative to Pf IC50 of 18a in vitro” value ([6]; after 18a 20 mg/kg i.p.) was “approximately 200 fold” and the concentration at 8 h ([6]; female, Swiss Webster, mouse, in vivo, 20 mg/kg, read-out: plasma concentration of 12a at 8 h) was 485 ng/mL and 2.8 µM. The “sensitivity in had1+HAD1-GFP strain” value [7] was “restored” and the “resistance of had1 parasites compared with wild-type 3D7” value [7] was 3.4 fold.

For `CC(C)(C)C(=O)OCOP(=O)(/C=C/CN(O)C=O)OCOC(=O)C(C)(C)C` [Compound 18a, [({[(2,2-dimethylpropanoyl)oxy]methoxy}[(1E)-3-(N-hydroxyformamido)prop-1-en-1-yl]phosphoryl)oxy]methyl 2,2-dimethylpropanoate], the IC50 ([2]; Plasmodium falciparum; Table 4, growth inhibition; read-out: Pf IC50) was 13 nM, the IC50 ([2]; Plasmodium falciparum; read-out: P. falciparum growth IC50) was 13 nM and the IC50 ([3]; HepG2, Table 5, cytotoxicity, read-out: HepG2 IC50) was greater than 50 µM. For the same molecule, the half-life at 1 μM ([4]; mouse, microsomes) was less than 5 min, the half-life [4, 14] was less than 5 min and the half-life at 1 μM [5] was less than 5 min. For the same molecule, the “drop in luciferin signal intensity compared to vehicle” value ([8]; 20 mg/kg i.p.) was 3 log, the “luciferin signal intensity (parasitemia)” value ([8]; 20 mg/kg i.p. daily for five days) was 2.87×10^3 and the “luciferin signal intensity (parasitemia)” value ([8]; 50 mg/kg i.p. daily for five days) was 2.34×10^3. For the same molecule, the “conversion of prodrug to 12a in vivo” value ([6]; 20 mg/kg i.p., Swiss Webster mice) was “rapidly converted to 12a”, the “sensitivity in had1+HAD1-GFP strain” value [7] was “restored” and the “resistance of had1 parasites compared with wild-type 3D7” value [7] was 2.5 fold. The “DOXP levels, treated vs untreated parasites” value [9] was “did not show significant difference” and the “levels of metabolites downstream of DXR, treated vs untreated parasites” value ([9]; MEP, CDP-ME, MEcPP) was “reduced levels”.

For `O=C(c1ccccc1)N(O)C/C=C/P(=O)([O-])O.[Na+]` [Compound 32a, Sodium hydrogen [(1E)-3-(N-hydroxy-1-phenylformamido)prop-1-en-1-yl]phosphonate], the IC50 [1, 15] was 110 nM and 106 nM, the “Mtb Dxr (% Residue)” value [10] was “(36.87) %” and the IC50 [2, 16] was 0.103 µg/mL. The MIC99 [11, 17] was 25 µg/mL, the MIC99 [11, 18] was greater than 50 µg/mL and the IC50 ([3]; HepG2, Table 6, cytotoxicity, read-out: HepG2 IC50) was greater than 50 µM. For the same molecule, the “resistance of had1 parasites compared with wild-type” value ([7]; in words) was “more resistant”.

In the case of `O=C(CCc1ccccc1)N(O)C/C=C/P(=O)([O-])O.[Na+]` [Compound 32c, Sodium hydrogen [(1E)-3-(N-hydroxy-3-phenylpropanamido)prop-1-en-1-yl]phosphonate], the IC50 [1, 15] is reported as 1340 nM, the “Mtb Dxr (% Residue)” value [10] is reported as “(62.3) %” and the IC50 [2, 16] is reported as 3.3 µg/mL. The MIC99 [11, 17] was greater than 100 µg/mL and the MIC99 [11, 18] was greater than 100 µg/mL.

With `O=C(CCCc1ccccc1)N(O)C/C=C/P(=O)([O-])O.[Na+]` [Compound 32d, Sodium hydrogen [(1E)-3-(N-hydroxy-4-phenylbutanamido)prop-1-en-1-yl]phosphonate] the IC50 [1, 15] was 898 nM, the “Mtb Dxr (% Residue)” value [10] was “(29.2) %” and the IC50 [2, 16] was 1.6 µg/mL. For the same molecule, the MIC99 [11, 17] was greater than 100 µg/mL and the MIC99 [11, 18] was greater than 100 µg/mL.

For `CC(=O)N(O)CCCP(=O)(O)O` [FR900098], the IC50 [12] is listed as 24 nM.

For `C[C@@H]1CC[C@H]2[C@@H](C)C(=O)O[C@@H]3O[C@@]4(C)CC[C@@H]1[C@]32OO4` [artemisinin], the IC50 [13] is given as 10.4 nM.
